Measurements: publication PMC9046208, “Foldamers reveal and validate therapeutic targets associated with toxic α-synuclein self-assembly” (Nature Communications, 2022)

Columns and labels:
[1] = molecular target: T1, αS seeds extracted from PD brain (Homo sapiens, UniProt P37840); assay: PMCA assay with αS seeds from PD brain (PK digestion, western blot); assay type: biochemical; conditions: SK-129 equimolar
T1 construct: Synuclein Residues (1-140); made in house; host or cells: Monomer: Escherichia coli BL21(DE3), WT αS in pET11 (Addgene); Seeds: fixed human substantia nigra tissue from post mortem PD brain
Excerpt: Fixed brain tissues were obtained from the Carroll A. Campbell, Jr. Neuropathology Lab (CCNL) brain bank at the Medical University of South Carolina (Dr. Steve Carroll, Director) and from Dr. Greg Gerhardt’s laboratory at the University of Kentucky. The seeds were extracted from the post mortem brain by following a published protocol with a slight modification. The brain was sliced in 1 cm slabs as soon as possible to avoid long post mortem intervals and fixed free-floating in a solution of 4% paraformaldehyde in 1x PBS buffer (4% paraformaldehyde in 1x PBS buffer). […] Following fixation, tissue was transferred to a cryoprotectant solution (30% glycerol, 30% ethylene glycol, and 40% 1x PBS buffer, v,v) and kept at −20 °C until dissection. A total of Sixteen brain regions were dissected after fixation and processed for neuropathological diagnosis of PD according to a published protocol. A diagnosis was conducted, which included staining with H & E, Bielshowsky’s silver stain, as well as p-Tau, Amyloid-β, and αS immunohistochemistry (See main manuscript Fig. 4b, c). From the total tissue amount, ~100 mg of fixed substantia nigra tissue was homogenized using a Bio-Gen PRO200 Tissue Homogenizer (PRO Scientific Inc., Oxford, CT) in 1x PBS buffer (10%, w/v). The homogenate was centrifuged at a rate of 19,000 × g for 12 min. […]

SH-SY5Y cells = assay: MTT cytotoxicity assay, SH-SY5Y cells; assay type: cell-based; conditions: 24 h, αS alone 48 ± 3%
Experimental: An MTT assay was conducted to assess the effect of SK-129 on the cytotoxicity mediated by αS aggregation in SH-SY5Y cells. The cells were cultured in phenol red-free Dulbeco’s Modified Eagle Medium (DMEM) with 10% Fetal Bovine Serum (FBS) and 1% penicillin-streptomycin (Pen/strep) at 37 °C and 5% CO2(g). The cells were plated in a clear, flat bottom 96-well cell culture plate (Costar, Kennebunk, ME) using a density of 10,000 cells per well with more than 90% cell viability. After incubating for 24 h, the media was aspirated, and 100 µL of fresh OptiMEM (Fisher Scientific, Pittsburgh, PA) was added, […] of various ligands at various stoichiometric ratios. The samples were then incubated for an additional 24 h at 37 °C and 5% CO2(g), followed by the addition of MTT dye (10 µL per well, prepared in 1x PBS buffer, 5 mg/mL). The plates were covered in aluminum foil and incubated again for 3 h. The solution in each well was carefully removed without disturbing the formazan crystals and replaced with 100 µL of DMSO to dissolve the formazan crystals. Subsequently, the plate was shaken in a 96-well plate reader for 5 min before measuring the absorbance at 570 nm. The cell viability was reported on a scale of 100%, using the control wells with regular media as 100% viability and the wells with 10% DMSO (v/v) as 0% viability.

[2] = tested on: HEK293 cells expressing αS-A53T-YFP; assay: MTT assay, HEK293 cells αS-A53T-YFP, recombinant αS fibers; assay type: cell-based; parameters: key to MTT read-out (viability of HEK cells): absorbance at 570 nm (dissolved formazan); conditions: for MTT read-out (viability of HEK cells): 7 μM αS + SK-129 equimolar
Experimental: The HEK293 cells that stably express αS-A53T-YFP and αS-YFP were grown in DMEM with 10% FBS and 1% pen/strep and cultured in an incubator at 37 °C and 5% CO2(g). A total of 60,000 cells per well in 300 µL media were plated in a µ-slide eight-well plate (Ibidi, Munich, Germany) and incubated for 24 h to adhere to the plate. […] Next, the plate was incubated for 24 h, followed by the addition of 30 µL of 1x PBS buffer containing MTT dye (in 1x PBS buffer, 5 mg/mL) to each well. The plates were wrapped in aluminum foil and incubated for 3 h. After 3 h, all liquid was aspirated carefully without disturbing the formazan crystals. To each well, 300 µL of DMSO was added to dissolve the crystals. Once dissolved, the DMSO solution was transferred to a clear 96-well plate (100 µL/well). The absorbance was read on a 96-well plate reader at 570 nm. The cytotoxicity of the HEK cells was monitored for up to 4 days.
The seeds were generated by aggregating recombinant αS (100 µM) in the absence and presence of SK-129 at an equimolar ratio under the ThT aggregation kinetic conditions for seven days. In the case of seeds from the brain, we used a PMCA sample (5th cycle) generated from the brain seeds in the absence and presence of SK-129 at an equimolar ratio.

## COC(=O)c1cc(OCC(=O)O)c2cccc(NC(=O)c3cc(OC(C)C)c4cccc(NC(=O)c5cc(OCC(=O)O)c6cccc(NC(=O)c7cc(OC(C)C)c8cccc([N+](=O)[O-])c8n7)c6n5)c4n3)c2n1 [SK-129]
[1]
  state of PMCA sample (cycle 5) of PD brain extract: neither aggregated nor PK resistant
SH-SY5Y cells; 10 μM αS aggregated with SK-129, 1:0.1 (αS:SK-129)
  viability of SH-SY5Y cells: 91 ± 4%
SH-SY5Y cells; 10 μM αS aggregated with SK-129, 1:1 (αS:SK-129)
  viability of SH-SY5Y cells: 97 ± 4%
[2]; trial 1
  MTT read-out (viability of HEK cells): 0.806
[2]; trial 2
  MTT read-out (viability of HEK cells): 0.8743
[2]; trial 3
  MTT read-out (viability of HEK cells): 0.8833
[2]; trial 4
  MTT read-out (viability of HEK cells): 0.8674
[2]; trial 5
  MTT read-out (viability of HEK cells): 0.8626
[2]; trial 6
  MTT read-out (viability of HEK cells): 0.8492
[2]; trial 7
  MTT read-out (viability of HEK cells): 0.941
[2]; trial 8
  MTT read-out (viability of HEK cells): 0.878
[2]; trial 9
  MTT read-out (viability of HEK cells): 0.892
[2]; trial 10
  MTT read-out (viability of HEK cells): 0.917
[2]; trial 11
  MTT read-out (viability of HEK cells): 0.805
[2]; trial 12
  MTT read-out (viability of HEK cells): 0.8882
[2]; trial 13
  MTT read-out (viability of HEK cells): 0.8431
[2]; trial 14
  MTT read-out (viability of HEK cells): 0.8823
[2]; trial 15
  MTT read-out (viability of HEK cells): 0.919
[2]; trial 16
  MTT read-out (viability of HEK cells): 0.8589
[2]; αS aggregated with SK-129 equimolar, 7 μM, 24 h, αS alone 68%
  viability of HEK cells: 94%
